Consider 10 molecules from US6203824A (priority 1992, dated 2001).

Values joined by “and” are separate entries in the source; they are usually repeats but may differ in a detail not shown here. Identical values can stand only once. Like-named read-outs stand apart in the source and are kept apart here.

Data set [1] deals with Trogoderma granarium. The conditions noted are these: in vivo; cited from earlier work.
For data set [2], the system named is Tribolium confusum. The following applies: in vivo; cited from earlier work.
Data set [3] concerns Tenebroides mauritanicus. The conditions noted are these: in vivo; cited from earlier work.
In data set [4] the test system is Sitophilus granarius. The conditions noted are these: in vivo; cited from earlier work.
Data set [5] relates to Sitophilus oryzae. The conditions noted are these: in vivo; cited from earlier work.
For data set [6] the following is noted: 25° C.; cited from earlier work.
Data set [7] has as its system Rhyzopertha dominica. The following applies: in vivo; cited from earlier work.
Data set [8] has as its system Oryzsephilus surinamensis. The conditions noted are these: in vivo; cited from earlier work.
Data set [9] has as its system Tribolium castaneum. The following applies: in vivo; cited from earlier work.
Data set [10] concerns Mice. The following applies: cited from earlier work.
For data set [11], the system named is Cold blooded animals. The conditions noted are these: in vivo; cited from earlier work.
Data set [12] relates to L. destructor. The following applies: in vivo.
Data set [13] deals with S. oryzae. More on the design: species or system Sitophilus oryzae. The following applies: in vivo.
Data set [14] deals with Rabbits. The following applies: rabbit, in vivo; cited from earlier work.
Data set [15] relates to B. tyroni. The data set can be described thus: whole plant or invertebrate. The following applies: Bactrocera, inhaled or nasal, read-out: Corrected mortality.
Data set [16] relates to B. tyroni. The following applies: queensland fruit fly, in vivo, inhaled.
Data set [17] has as its system mould. The conditions noted are these: in vivo.
In data set [18] the test system is Coptotermes acinaciformis. The data set can be described thus: whole plant or invertebrate. The following applies: inhaled or nasal, 24 h, read-out: Corrected mortality.
The subject of data set [19] is Liposcelis bostrychophilus. The conditions noted are these: in vivo.
The format of data set [20] is physicochemical. The following applies: empty vial, 15 min.
The conditions of data set [21]: moist soil.
Data set [22] deals with grains of Australian standard white wheat and malting barley. The following applies: in vivo.
In data set [23] the test system is S. oryzae. The following applies: in vivo.
In data set [24] the test system is R. dominica. The following applies: in vivo.

As for `S=C=S` [Carbon disulphide, carbon disulphide], the “LC95 (concentration x time product)” value in [1] was 696.0; in data set [5] it was 300.0; in [7] it was 294.0; in data set [8], 408.0. Moreover, the “LC99 (concentration x time product)” value in data set [2] is 560.00; in data set [3], 828.00; in data set [4], 325.0. Further, the solubility in water in data set [6] is given as 2.2 grams per litre.
Consider `ClCCCl` [Ethylene dichloride, ethylene dichloride], for which the “LC95 (concentration x time product)” value in data set [1] was 2080.5; in data set [5], 738.0; in [7] it was 636.0; in data set [8], 462.0. For the same molecule, the “LC99 (concentration x time product)” value was 365.0 in data set [2], 1728.0 in data set [3] and 230.0 in data set [4]. For the same molecule, the “LC90 (concentration x time product)” value in data set [9] was 462.0.
With `P` [Phosphine, phosphine], the “100% mort. (concentration x time product)” value in data set [1] is recorded as 331.0. Moreover, the figures for the “LC99 (concentration x time product)” value in data set [2], in data set [3] and in [4] were 0.48, about 5.0 and 1.01, respectively. The figures for the “LD99 (concentration x time product)” value in data set [5], in data set [7] and in data set [8] were 0.36, 0.6 and 0.96, respectively. In addition, in [9], the “LC90 (concentration x time product)” value is 11.5.
Consider `C=CC#N` [Acrylonitrile, acrylonitrile], for which the “LC95 (concentration x time product)” value in data set [1] was 48.0; in data set [5], 10.8; in [7], 8.4; in data set [8], 8.4. The entries for the “LC99 (concentration x time product)” value in data set [2], in [3] and in data set [4] were 19.5, 40.0 and 11.0, respectively.
Consider `C1CO1` [Ethylene oxide, ethylene oxide], for which the “LC95 (concentration x time product)” value is reported as 176.0 in data set [1], 62.0 in [5], 69.6 in data set [7] and 60.0 in data set [8]. For the same molecule, the “LC99 (concentration x time product)” value is 127.5 in data set [2], 175.0 in [3] and 36.0 in data set [4]. Also, the “LD99 (concentration x time product)” value in data set [9] is on record as 135.0.
As to `BrCCBr` [Ethylene dibromide, ethylene dibromide], the “LC95 (concentration x time product)” value in [1] is 80.0; in data set [5], 60.0; in [7], 37.2; in [8], 19.2. The “LC99 (concentration x time product)” value in [2] is on record as 31.0; in data set [3], 125.00; in [4], 34.5. In data set [9], the “LD95 (concentration x time product)” value is 22.0.
With `O=S(=O)(F)F` [Sulphuryl fluoride, sulphuryl fluoride], the “LC99 (concentration x time product)” value in [2] is 55.0; in [3], 81.5; in [4], 17.5.
A word on the mortality: it is the percentage killed. For `O=C=S` [carbonyl sulphide], the time to death in data set [10] (1200 ppm) was 35 min. For the same molecule, the time to death in data set [10] (2900 ppm) is reported as 11/2. In addition, the time to death in data set [10] (8900 ppm) is listed as 3/4. For the same molecule, in data set [10] (mouse, in vivo), the “concentration in air above which mice die quickly” value is “more than 0.3 per cent” and the effects after exposure result is given as “no perceptible effects”. Moreover, the “resistance compared with warm-blooded animals” value in data set [11] is listed as “more resistance”. In data set [12], the “Minimum effective tested dose” value worked out at 120. The same molecule gave a Corrected mortality in data set [12] (mite, inhaled, 6 h) of 100%. In addition, the “Number of insects emerging from culture” value in [13] amounted to 2. Further, in data set [14], the “concentration in air above which rabbits die quickly” value is listed as “more than 0.3 per cent” and the effects after exposure entry is on record as “some ill effects”. In data set [15] (6 h), the mortality at 120 mg h/L turned out to be 12.6%, the mortality at 150 mg h/L stood at 13.5%, the mortality at 210 mg h/L was 100% and the mortality at 300 mg h/L stood at 91.7%. In data set [15] (6 h), the mortality at 360 mg h/L was found to be 100%, the mortality at 480 mg h/L came to 99.2%, the mortality at 600 mg h/L is 100% and the mortality at 720 mg h/L turned out to be 99.7%. In addition, the mortality at 870 mg h/L in data set [15] (6 h) is 93.3%. In [15] (24 h), the mortality at 120 mg h/L came out at 37.1%, the mortality at 180 mg h/L amounted to 4.9%, the mortality at 240 mg h/L was 19.5% and the mortality at 366 mg h/L was determined as 53.3%. In data set [15] (24 h), the mortality at 420 mg h/L turned out to be 88.8%, the mortality at 480 mg h/L came out at 98.3%, the mortality at 540 mg h/L was determined as 98.3% and the mortality at 600 mg h/L turned out to be 100%. Also, in [16] (6 h), the Corrected mortality is listed as 100%. In addition, the Corrected mortality in data set [16] (24 h) came to 100%. Besides, in [17], the “discolouration of wheat by mould” value was “no discolouration occurred”. In addition, in [6], the solubility in water is on record as 1.4 grams per litre. Moreover, in [18], the mortality at 192 mg h/L stood at 0% and the mortality at 600 mg h/L was determined as 100%. Also, in data set [19], the “Minimum effective tested dose” value is reported as 22.5 and the “psocids dead after exposure” value is recorded as “all 200 of the psocids were dead”. Also, in data set [20], the “recovery of the calculated applied dose” value is 98.4 per cent. Besides, the “concentration as per cent of the calculated initial concentration” value in [21] (2 min) is reported as 62 per cent. Also, the “concentration as per cent of the calculated initial concentration” value in [21] (5 h) was 18 per cent. For the same molecule, the “concentration as per cent of the calculated initial concentration” value in data set [21] (20 h) is recorded as 5.9 per cent. For the same molecule, in data set [22], the “% Germination, final count (10 days)” value was 96% and 93% and 92%; the “% Germination, first count (4 days)” value was 93% and 91% and 89%; the “effect on seed germination or vigour” value was “no effect on seed germination or vigour was detected”. This molecule had a No. emerged in [23] of 2. In data set [24], this molecule gave a No. emerging of 2. Also, in data set [24] (rhyzopertha dominica, 24 h), the “control of all immature stages of R. dominica, on average” value is reported as 93.4 per cent.
As for `ClC(Cl)(Cl)Cl` [Carbon tetrachloride, carbon tetrachloride], the “LC99 (concentration x time product)” value is listed as 025.0 in data set [2] and 495.0 in data set [4]. Moreover, the “LD50 (concentration x time product)” value in [3] is 400.00. In addition, the “LC95 (concentration x time product)” value in data set [5] was 220.0. Moreover, the “LC90 (concentration x time product)” value in data set [9] was 600.0.
With `CBr` [Methyl bromide, methyl bromide], the “LC95 (concentration x time product)” value in data set [1] is on record as 136.0; in data set [7], 33.0; in data set [8], 40.8. Further, the “LC99 (concentration x time product)” value is listed as 64.0 in data set [2], 115.0 in [3] and 28.0 in [4]. The “LD99 (concentration x time product)” value in data set [5] is 30.0. In data set [6], the solubility in water is on record as 13.4 grams per litre. Also, the “LD95 (concentration x time product)” value in data set [9] is listed as 62.0.
